Laboratory results taken from US20250235501A1, “Methods and Compositions for Treating or Preventing Neurological Injury or Neurological Disorders” (University of Connecticut, priority 2024, published 2025).

Tests used:
[1] = biological target: T1, NMDARs (Mus musculus, UniProt P35436+Q01097); assay: Surface expression of NMDARs in brains of MCAO mice (WB); format: in vivo; conditions: 100 nmol/kg ip 15 mins before MCAO; 24 hrs after MCAO
T1 construct: from tissue; host or cells: mouse brain, membrane protein extract 24 h after MCAO or sham
Experimental: FIGS. 7D and 7E show the effects of TAT-EE3 on surface expression of NMDARs in WT and nM2KO mice 24 hrs after MCAO or sham procedure. TAT-SC and TAT-EE3 were ip administrated (100 nmol/kg) 15 mins before MCAO or sham procedure. FIG. 7D show the WB of surface expression of NMDARs from two representative samples/group. Pan-cadherin was used as loading control. FIG. 7E show the quantification of surface expression of NMDARs normalized to Pan-cadherin (ns, p>0.05; ***, p<0.001; ANOVA, Bonferroni's test; mean±SEM; n=4 mice/group).
(§1) Eight-to nine-week-old male mice (˜25 g) were subjected to right middle cerebral artery occlusion (MCAO) for 120 min followed by 24 hours of reperfusion. The genotype information was blinded to the surgeon who conduct the surgeries. […] Mouse body temperature was monitored by a rectal temperature probe and maintained at ˜ 37° C. with an automatic temperature-regulating heating pad connected to animal temperature controller (TCA T-2DF, Physitemp). Cerebral blood flow was monitored after occlusion as well as after reperfusion. […] Successful occlusion was confirmed by 85% reduction of cerebral blood flow monitored by Laser Doppler Flowmetry (LDF) with laser Doppler blood FlowMeter (Moor-VMS-LDF1, Moor Instrument, Dever, UK). […]

[2] = test system: ERK and CREB activities (pERK1/2, pCREB); assay: ERK and CREB activities in brains of mice subjected to MCAO (WB); format: in vivo, mouse; conditions: WT mice; peptide ip 15 min before MCAO or sham
Experimental: FIGS. 7I-7K show the effects of TAT-EE3 and Trpm2 deletion on ERK and CREB activities in mice subjected to MCAO. […] TAT-EE3 or TAT-SC was ip administrated to WT mice 15 min before MCAO or sham surgeries. FIGS. 7J and 7K show the quantification of pERK1/2 and pCREB expressed in the brains after MCAO or sham procedure (***, p<0.001; ANOVA, Bonferroni's test; mean±SEM, n=4/group).
as §1
NP-40/Triton lysis buffer ([…], 1% Triton™ X-100, 150 mM NaCl, 1 mM EDTA, 50 mM Tris, pH=8.0) containing proteinase inhibitors and phosphatase inhibitors was used to lyse both cultured cells and frozen brain tissue. […] Protein concentration was measured using Pierce™ Rapid Gold BCA Protein Assay Kit. […]

T1 sequence (P35436 20-1464 limits assumed, other chains not shown): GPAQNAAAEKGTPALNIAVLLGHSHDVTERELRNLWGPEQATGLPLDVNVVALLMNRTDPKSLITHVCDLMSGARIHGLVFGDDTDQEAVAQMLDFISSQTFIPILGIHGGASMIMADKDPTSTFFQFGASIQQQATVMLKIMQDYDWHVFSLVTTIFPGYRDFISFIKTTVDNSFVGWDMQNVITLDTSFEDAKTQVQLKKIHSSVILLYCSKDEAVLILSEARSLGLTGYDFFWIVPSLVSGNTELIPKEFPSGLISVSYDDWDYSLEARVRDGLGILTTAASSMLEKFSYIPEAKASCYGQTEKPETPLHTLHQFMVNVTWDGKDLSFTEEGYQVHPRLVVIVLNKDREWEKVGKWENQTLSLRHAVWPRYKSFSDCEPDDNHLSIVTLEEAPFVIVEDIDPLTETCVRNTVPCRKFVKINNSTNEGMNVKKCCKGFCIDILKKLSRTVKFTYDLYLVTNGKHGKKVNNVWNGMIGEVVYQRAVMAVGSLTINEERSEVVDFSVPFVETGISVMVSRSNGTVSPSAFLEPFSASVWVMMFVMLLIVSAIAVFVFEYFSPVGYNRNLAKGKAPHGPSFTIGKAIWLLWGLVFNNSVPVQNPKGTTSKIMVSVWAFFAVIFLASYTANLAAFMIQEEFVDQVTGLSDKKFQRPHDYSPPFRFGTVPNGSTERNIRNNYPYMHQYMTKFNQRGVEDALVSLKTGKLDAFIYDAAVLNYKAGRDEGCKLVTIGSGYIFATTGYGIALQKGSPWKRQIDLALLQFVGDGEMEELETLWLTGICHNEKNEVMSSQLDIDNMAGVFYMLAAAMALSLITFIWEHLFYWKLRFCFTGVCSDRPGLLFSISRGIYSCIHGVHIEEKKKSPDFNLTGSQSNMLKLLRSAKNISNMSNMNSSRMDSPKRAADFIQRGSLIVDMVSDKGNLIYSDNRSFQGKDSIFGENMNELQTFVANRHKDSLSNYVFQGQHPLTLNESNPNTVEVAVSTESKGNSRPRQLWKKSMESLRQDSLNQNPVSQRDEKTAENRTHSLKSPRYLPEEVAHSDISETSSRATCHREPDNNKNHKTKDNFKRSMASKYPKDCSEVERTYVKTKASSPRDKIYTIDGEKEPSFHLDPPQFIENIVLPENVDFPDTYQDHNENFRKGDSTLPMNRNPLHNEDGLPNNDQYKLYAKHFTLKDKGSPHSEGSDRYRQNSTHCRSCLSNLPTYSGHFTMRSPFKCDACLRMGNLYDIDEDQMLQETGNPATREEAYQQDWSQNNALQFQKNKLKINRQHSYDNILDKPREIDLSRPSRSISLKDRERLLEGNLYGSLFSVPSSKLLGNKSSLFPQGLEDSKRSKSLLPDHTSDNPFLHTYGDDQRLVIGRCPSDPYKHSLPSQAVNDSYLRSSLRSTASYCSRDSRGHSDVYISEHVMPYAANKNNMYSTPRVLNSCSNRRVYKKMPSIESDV
T1 sequence (Q01097 27-1482, other chains not shown): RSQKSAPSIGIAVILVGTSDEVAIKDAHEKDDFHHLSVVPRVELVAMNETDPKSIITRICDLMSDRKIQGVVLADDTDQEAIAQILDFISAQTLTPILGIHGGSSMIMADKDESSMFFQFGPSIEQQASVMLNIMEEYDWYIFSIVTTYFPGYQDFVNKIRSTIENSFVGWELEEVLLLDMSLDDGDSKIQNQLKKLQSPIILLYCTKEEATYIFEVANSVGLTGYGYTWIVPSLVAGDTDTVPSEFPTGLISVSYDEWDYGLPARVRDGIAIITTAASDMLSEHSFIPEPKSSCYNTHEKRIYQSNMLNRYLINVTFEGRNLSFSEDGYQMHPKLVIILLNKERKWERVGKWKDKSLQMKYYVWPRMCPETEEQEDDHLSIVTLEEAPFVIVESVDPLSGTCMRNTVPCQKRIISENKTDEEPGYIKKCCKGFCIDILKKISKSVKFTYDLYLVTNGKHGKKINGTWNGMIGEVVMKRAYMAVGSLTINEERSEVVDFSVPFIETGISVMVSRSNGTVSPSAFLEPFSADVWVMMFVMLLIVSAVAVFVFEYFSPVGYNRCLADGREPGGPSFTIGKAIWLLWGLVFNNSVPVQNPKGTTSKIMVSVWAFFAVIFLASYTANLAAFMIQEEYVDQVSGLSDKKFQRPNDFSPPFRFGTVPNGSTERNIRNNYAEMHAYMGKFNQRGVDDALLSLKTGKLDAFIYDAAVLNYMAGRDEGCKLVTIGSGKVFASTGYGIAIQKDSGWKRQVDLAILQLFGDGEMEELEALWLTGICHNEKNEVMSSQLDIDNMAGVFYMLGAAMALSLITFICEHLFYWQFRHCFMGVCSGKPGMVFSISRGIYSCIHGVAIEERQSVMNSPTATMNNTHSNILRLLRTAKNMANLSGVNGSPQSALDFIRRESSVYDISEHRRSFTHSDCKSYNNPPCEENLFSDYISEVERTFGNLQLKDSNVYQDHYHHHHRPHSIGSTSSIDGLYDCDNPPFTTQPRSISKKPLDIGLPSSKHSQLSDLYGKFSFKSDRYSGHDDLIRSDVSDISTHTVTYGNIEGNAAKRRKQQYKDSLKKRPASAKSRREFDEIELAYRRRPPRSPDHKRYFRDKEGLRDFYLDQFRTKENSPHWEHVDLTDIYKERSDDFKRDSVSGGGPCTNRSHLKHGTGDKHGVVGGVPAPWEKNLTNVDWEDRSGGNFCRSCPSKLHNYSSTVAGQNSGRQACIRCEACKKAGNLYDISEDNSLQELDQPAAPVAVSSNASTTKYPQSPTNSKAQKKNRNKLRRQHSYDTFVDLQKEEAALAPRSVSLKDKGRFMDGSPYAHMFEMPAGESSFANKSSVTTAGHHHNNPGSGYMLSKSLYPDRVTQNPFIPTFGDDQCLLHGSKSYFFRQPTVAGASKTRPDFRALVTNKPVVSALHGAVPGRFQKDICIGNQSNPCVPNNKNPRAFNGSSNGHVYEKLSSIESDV

## TAT-EE3: membrane permeable disrupting peptide, sequence YGRKKRRQRRREEDTDSSEEMLALAEE (SEQ ID NO: 4)
[1]
  enhanced surface expression of NMDARs in MCAO mice: abolished
[2]
  pCREB level in MCAO brains vs sham control brains: no reduction
  pERK1/2 level in MCAO brains vs sham control brains: no reduction
